From patent US20240174638A1, “HETEROARYL DERIVATIVES AS APELIN RECEPTOR AGONISTS” (RESEARCH TRIANGLE INSTITUTE, priority 2021, published 2024)

How the values were obtained:
[1] = tested on: Human plasma protein; conditions: 6 h, 1 μM
[2] = in vitro; conditions: rat, pH 7.4
[3] = tested on: Mouse plasma protein; conditions: 6 h, 1 μM
[4] = in vitro; conditions: mouse, pH 7.4
[5] = in vitro; conditions: human
[6] = tested on: Rat plasma protein; conditions: 6 h, 1 μM
[7] = tested on: BLEO-induced lung fibrosis in male C57BL/6 mice; test: Chronic (21-day) bleomycin-induced lung fibrosis model, prophylactic (Px) and therapeutic (Tx) arms; assay type: in vivo, mouse
[8] = tested on: Salmonella typhimurium (TA98, TA100, TA1535 and TA1537)
[9] = relative to Vehicle-treated BLEO-instilled controls

% Protein Bound Rep 1 [1] [%] | % Protein Bound Rep 2 [1] [%] | % Protein Bound Rep 3 [1] [%] | Buffer Concentration Rep 1 [1] [nM] | Buffer Concentration Rep 2 [1] [nM] | Buffer Concentration Rep 3 [1] [nM] | Plasma Concentration Rep 1 [1] [nM] | Plasma Concentration Rep 2 [1] [nM] | Plasma Concentration Rep 3 [1] [nM] | recovery at 6 h, 1 μM [2] [%] | % Protein Bound Rep 1 [3] [%] | % Protein Bound Rep 2 [3] [%] | % Protein Bound Rep 3 [3] [%] | Buffer Concentration Rep 1 [3] [nM] | Buffer Concentration Rep 2 [3] [nM] | Buffer Concentration Rep 3 [3] [nM] | Mean % Protein Bound [3] [%] | Plasma Concentration Rep 2 [3] [nM] | Plasma Concentration Rep 3 [3] [nM] | recovery at 6 h, 1 μM [4] [%] | SMILES | also measured
−12.84 | −22.81 | −2.59 | 544.3 | 539.8 | 494.8 | 482.3 | 439.6 | 482.3 | 105 | 18.36 | 23.23 | 20.05 | 274.4 | 258.1 | 268.1 | 20.50 | 336.2 | 335.3 | 60.3 | CCCC(=O)Nc1ccc(OCC(O)CNC(C)C)c(C(C)=O)c1 (stereo not drawn) [Acebutolol] | Plasma Concentration Rep 1 [3]: 336.0 nM; recovery at 6 h, 1 μM [5]: 99.4%; % Protein Bound Rep 1 [6]: −11.35%; % Protein Bound Rep 2 [6]: −26.18%; % Protein Bound Rep 3 [6]: −33.75%; Buffer Concentration Rep 1 [6]: 552.8 nM; Buffer Concentration Rep 2 [6]: 571.3 nM; Buffer Concentration Rep 3 [6]: 639.1 nM; Plasma Concentration Rep 1 [6]: 455.6 nM; Plasma Concentration Rep 2 [6]: 452.8 nM; Plasma Concentration Rep 3 [6]: 477.8 nM
97.59 | 98.26 | 98.01 | 21.6 | 17.3 | 18.4 | 897.5 | 993.2 | 926.2 | 81.4 | 89.13 | 90.27 | 91.02 | 91.8 | 89.5 | 82.3 | 90.10 | 919.8 | 917.0 | 98.2 | CC(=O)CC(c1ccccc1)c1c(O)c2ccccc2oc1=O (stereo not drawn) [Warfarin] | Mean % Protein Bound [1]: 97.96%; recovery at 6 h, 1 μM [5]: 95.4%; % Protein Bound Rep 1 [6]: 99.46%; % Protein Bound Rep 2 [6]: 99.25%; % Protein Bound Rep 3 [6]: 97.82%; Buffer Concentration Rep 1 [6]: 4.4 nM; Buffer Concentration Rep 2 [6]: 5.9 nM; Buffer Concentration Rep 3 [6]: 17.7 nM; Mean % Protein Bound [6]: 98.80%
– | – | – | – | – | – | – | – | – | – | – | – | – | – | – | – | – | – | – | – | Cc1ccc(=O)n(-c2ccccc2)c1 [PIRF, Pirfenidone, reference compound] | 21-day survival rate ([7]; BLEO-instilled mice, Px PIRF 200 mg/kg/day p.o. BID): 94%; ΔBW ([7]; D0-D21, relative to Vehicle-treated BLEO-instilled controls): Neither EXAMPLE 22 nor PIRF affected; composite Collagen Volume Fraction (CVF) ([7]; Px PIRF 200 mg/kg/day, Vehicle 2.63±0.24%): 1.87±0.19%; composite Tissue Collagen Fraction (TCF) ([7]; Px PIRF 200 mg/kg/day, Vehicle 5.58±0.34%): 4.43±0.34%; LW indexed to tibia length (LW:TL) [7, 9]: Neither EXAMPLE 22 nor PIRF affected; endpoint lung OH-P content [7, 9]: Neither EXAMPLE 22 nor PIRF affected; endpoint lung weight (LW) [7, 9]: Neither EXAMPLE 22 nor PIRF affected; final BW [7, 9]: Neither EXAMPLE 22 nor PIRF affected; serial BW [7, 9]: Neither EXAMPLE 22 nor PIRF affected
– | – | – | – | – | – | – | – | – | – | – | – | – | – | – | – | – | – | – | – | COc1ccc2nc3cc(Cl)ccc3c(NCCCNCCCl)c2c1 [ICR-191] | Cytotoxicity Code [8]: N; Mean Revertant Colony Counts ([8]; Salmonella typhimurium): 66.00; Ratio ([8]; Salmonella typhimurium): 28.33
